In US6218384A, “3-Oxo-pyrido(1,2-a)benzimidazole-4-carboxyl and 4-oxo-azepino(1,2-a)benzimidazole-5-carboxyl derivatives useful in treating central nervous system disorders” (Ortho-McNeil Pharmaceutical, Inc., priority 1997, dated 2001):
pIC50: −log10 of the molar value.

How the values were obtained:
[1] = Suppression of anxiety (punished licking, conflict test) in the adult male rat; type: in vivo, male rats; details: Table 1, ip, minimum effective dose, >10 = active dose not determined, read-out: Conflict (ip) MED
Method: The anxiolytic activity of selected compounds of the invention was assessed by determining their ability to release (disinhibit) behavior that had been suppressed by punishment (Vogel, J. R. et al. Psychopharmacology 1971, 21, 1). Male rats were deprived of water for 48 hours and were deprived of food for 24 hours prior to testing. After the first 24 hours of water deprivation, they were placed in the conflict chamber for a training period; wherein, they were allowed 200 unpunished licks from a bottle containing tap water. The experiment was run the next day. At the expected time of peak activity, the animals were placed in the chamber and allowed access to tap water. […] Their first lick initiates a 3-min test session. Subsequently,every 20th lick was punished by a 0.2-s shock delivered via the stainless-steel drinking-tube. Vehicle-treated control animals generally were willing to accept a median number of 3 to 8 shocks per test session. […] The Wilcoxon rank-sum test (Mann-WhitneyU-test) was used to test for an increase (p<0.05, 1-tailed) in the median number of shocks in drug-treated groups, compared to a concurrently run vehicle-treated group. The biological assay is considered to be valid if the effects of a known anxiolytic (positive control) are detected, within the same experiment. A compound was considered active if there is a significant difference in the median number of shocks tolerated between the drug-treated group and the control group. The MED was defined as the minimum dose of the drug-treatment as analyzed using the Wilcoxon rank-sum test (SAS; Statistical Analysis System, version 5.16). If the MED value is greater than 10, an active dose of the compound being tested had not been determined.

[2] = Suppression of metrazol-induced convulsions; type: in vivo, male CD1 mice; details: Mus musculus, 0.5 h; Table 1; ip; mice; clonic convulsions after sc CD90 metrazol; >30 = active dose not determined; read-out: Metrazol (ip) ED50
Method: Selected compounds of the invention were tested for their ability to reduce metrazol-induced convulsions in mice (Swinyard, E. A. J. Am. Pharm Assoc. 1949, 38, 201). Male CD1 mice, were fasted at least 16 hours, were divided into equal groups and test compounds or vehicle were administered parenterally. Water was not withheld except during the period of observations. At the time of suspected peak activity, anti-pentylenetetrazol (anti-metrazol) activity was evaluated by the subcutaneous administration of the CD90 dose of metrazol (the dose of metrazol was determined from the dose-response curve producing clonic convulsions in 90% of animals that received the corresponding vehicle for this experiment). Metrazol was dissolved in 0.9% sodium chloride solution, and its dose volume was 10 ml/kg. Animals were housed individually for observation of clonic convulsions, tonic convulsions and death for a period of 30 min. Test compounds that blocked the clonic seizure component of the convulsion in at least 50% of the animals were considered active. The biological assay was considered to be valid if the effects of a known anticonvulsant (positive control) were detected, within the same experiment. Activity was reported as percent reduction of clonic convulsions from the vehicle group. The ED50 values of active compounds were calculated by the method of probits (Finney, D. J. 1971. Probit Analysis. London: Cambridge University Press) and are listed in Tables 1 to 5.

[3] = molecular target: benzodiazepine site of the GABA-A receptor; assay: Benzodiazepine Receptor Binding Assay (inhibition of 3H-flunitrazepam binding); details: Table 1; ca. 3 nM 3H-flunitrazepam, 25° C., 10-20 min; >10,000 = not active

| Compound | minimal effective dose [1] | ED50 [2] | pIC50 [3] |
| --- | --- | --- | --- |
| CSc1ccccc1NC(=O)C1=C2Nc3ccccc3N2CCC1=O [compound 40] | > 10 mg/kg | > 10 mg/kg | 6.14 |
| O=C1CCN2C(=C1C(=O)Nc1ccc3ncccc3c1)Nc1ccccc12 [compound 41] | > 10 mg/kg | > 30 mg/kg | 6.89 |
| O=C1CCN2C(=C1C(=O)NC1CC1)Nc1ccccc12 [compound 43] | > 10 mg/kg | > 10 mg/kg | 7.80 |
| O=C1CCN2C(=C1C(=O)Nc1ccc(Br)cc1)Nc1ccccc12 [compound 44] | > 10 mg/kg | 3 mg/kg | 6.89 |
| O=C1CCN2C(=C1C(=O)Nc1ccc(F)cc1)Nc1ccccc12 [compound 45] | 10 mg/kg | > 30 mg/kg | 6.37 |
| O=C1CCN2C(=C1C(=O)Nc1ncccn1)Nc1ccccc12 [compound 46] | 10 mg/kg | 3 mg/kg | 7.27 |
| Nc1ccccc1NC(=O)C1=C2Nc3ccccc3N2CCC1=O [compound 47] | 10 mg/kg | 3 mg/kg | 7.30 |
| O=C1CCN2C(=C1C(=O)Nc1ccc3cn[nH]c3c1)Nc1ccccc12 [compound 48] | 10 mg/kg | > 30 mg/kg | 6.46 |
| O=C1CCN2C(=C1C(=O)Nc1nccnn1)Nc1ccccc12 [compound 49] | > 10 mg/kg | 10 mg/kg | 7.27 |
| O=C1CCN2C(=C1C(=O)Nc1ccc3[nH]ncc3c1)Nc1ccccc12 [compound 50] | 10 mg/kg | > 10 mg/kg | 7.02 |
| O=C1CCN2C(=C1C(=O)Nc1cccc3ccoc13)Nc1ccccc12 [compound 51] | 10 mg/kg | > 10 mg/kg | 6.92 |
| O=C1CCN2C(=C1C(=O)Nc1ccnc(Cl)c1)Nc1ccccc12 [compound 52] | > 10 mg/kg | > 10 mg/kg | 5.85 |
| O=C1CCN2C(=C1C(=O)Nc1ncncn1)Nc1ccccc12 [compound 53] | > 10 mg/kg | > 10 mg/kg | 6.96 |
| N#Cc1ccc(NC(=O)C2=C3Nc4ccccc4N3CCC2=O)cc1 [compound 54] | < 10 mg/kg | > 10 mg/kg | 4.89 |
| O=C1CCN2C(=C1C(=O)Nc1c(F)c(F)nc(F)c1F)Nc1ccccc12 [compound 55] | > 10 mg/kg | > 10 mg/kg | 6.46 |
| COc1ccc2c(c1)NC1=C(C(=O)Nc3ccncc3)C(=O)CCN12 [compound 57] | > 10 mg/kg | > 10 mg/kg | 6.30 |
| O=C1CCN2C(=C1C(=O)NCc1ccncc1)Nc1ccccc12 [compound 59] | > 10 mg/kg | > 10 mg/kg | 7.19 |
| O=C1CCN2C(=C1C(=O)NN1CCOCC1)Nc1ccccc12 [compound 60] | < 10 mg/kg | > 10 mg/kg | 5.52 |
| NS(=O)(=O)c1ccc(NC(=O)C2=C3Nc4ccccc4N3CCC2=O)cc1 [compound 61] | 10 mg/kg | > 10 mg/kg | 5.00 |
| O=C1CCN2C(=C1C(=O)NCc1cccnc1)Nc1ccccc12 [compound 62] | > 10 mg/kg | > 10 mg/kg | 6.81 |

| Compound | minimal effective dose [1] | ED50 [2] | pIC50 [3] |
| --- | --- | --- | --- |
| O=C1CCN2C(=C1C(=O)Nc1cnccn1)Nc1ccccc12 [compound 63] | > 10 mg/kg | > 10 mg/kg | 6.44 |
| Cc1nnc(NC(=O)C2=C3Nc4ccccc4N3CCC2=O)s1 [compound 64] | > 10 mg/kg | > 10 mg/kg | 5.96 |
| O=C1CCN2C(=C1C(=O)Nc1cccc3cnccc13)Nc1ccccc12 [compound 65] | > 10 mg/kg | 10 mg/kg | 6.11 |
| CSc1cnccc1NC(=O)C1=C2Nc3ccccc3N2CCC1=O [compound 66] | 10 mg/kg | 10 mg/kg | 5.48 |
| O=C1CCN2C(=C1C(=O)Nc1c(Cl)c(F)nc(F)c1Cl)Nc1ccccc12 [compound 67] | 10 mg/kg | 10 mg/kg | 5.00 |
| Cc1cc(NC(=O)C2=C3Nc4ccccc4N3CCC2=O)on1 [compound 68] | > 10 mg/kg | > 10 mg/kg | 7.27 |
| O=C1CCN2C(=C1C(=O)Nc1nncs1)Nc1ccccc12 [compound 69] | > 10 mg/kg | > 10 mg/kg | 6.52 |
| O=C1CCN2C(=C1C(=O)Nc1cccnc1Cl)Nc1ccccc12 [compound 70] | 10 mg/kg | 3 mg/kg | 7.17 |
| CCN(CC)c1ccc(NC(=O)C2=C3Nc4ccccc4N3CCC2=O)cc1 [compound 71] | > 10 mg/kg | 3 mg/kg | 5.74 |
| O=C1CCN2C(=C1C(=O)Nc1ccc3ncsc3c1)Nc1ccccc12 [compound 72] | < 10 mg/kg | > 10 mg/kg | 5.00 |
| O=C1CCN2C(=C1C(=O)Nc1ccc3[nH]nnc3c1)Nc1ccccc12 [compound 73] | > 10 mg/kg | > 10 mg/kg | 6.80 |
| O=C1CCN2C(=C1C(=O)Nc1nnc(C(F)(F)F)s1)Nc1ccccc12 [compound 74] | > 10 mg/kg | 10 mg/kg | 5.00 |
| O=C1CCN2C(=C1C(=O)Nc1ccncc1Cl)Nc1ccccc12 [compound 75] | > 10 mg/kg | 1 to 10 mg/kg | 6.66 |
| Cc1cc(NC(=O)C2=C3Nc4ccccc4N3CCC2=O)c2ccccc2n1 [compound 76] | > 10 mg/kg | 10 mg/kg | 5.00 |
| Cc1cnccc1NC(=O)C1=C2Nc3ccccc3N2CCC1=O [compound 77] | > 10 mg/kg | > 10 mg/kg | 5.15 |
| O=C1CCN2C(=C1C(=O)Nc1ncc(C(F)(F)F)cc1C(F)(F)F)Nc1ccccc12 [compound 78] | 10 mg/kg | > 10 mg/kg | < 5.00 |
| CSc1cc(N(C)C)ccc1NC(=O)C1=C2Nc3ccccc3N2CCC1=O [compound 79] | > 10 mg/kg | > 10 mg/kg | 6.18 |
| CN(C)c1ccc(NC(=O)C2=C3Nc4cc(Cl)ccc4N3CCC2=O)cc1 [compound 80] | > 10 mg/kg | 10 mg/kg | 6.66 |
| O=C1CCN2C(=C1C(=O)Nc1ccccc1)Nc1cc(Cl)ccc12 [compound 81] | 10 mg/kg | > 10 mg/kg | 7.18 |
